Earlier results in patent US4834966A, “Pharmaceutical composition with analgesic activity” (priority 1986, dated 1989).

Experiments:
[1] = background statement
[2] = tested on: gastrointestinal and oral mucosa; conditions: background statement

With `CC(C)Cc1ccc(C(C)C(=O)[O-])cc1.[Na+]` (centres unmarked) [Ibuprofen sodium salt] as the compound, how does the solubility in water [1] read?
Its solubility in water is “good solubility in water”.

And the “gastrointestinal effect of solution pH” value [2]?
The value was “gives solutions having a pH which produces gastrointestinal damages”.
